What was measured:
[1] = tested on: healthy dogs; assay: Sedation assessment after oral methadone alone or with oral fluconazole (Example I); format: in vivo, dog; settings: methadone alone 1 mg/kg PO
[2] = Plasma methadone, naltrexone and naltrexone metabolites, multiple oral doses (Example III); format: in vivo, dog; settings: oral methadone/fluconazole/naltrexone formulation, both groups; throughout dosing and at least 12 hours after the last dose
Source text: Twelve healthy Beagle dogs were divided into two groups of 6 each in a parallel study design. […] Group 1 simulated a patient dropped off the night before surgery, while Group 2 simulated a patient dropped off in the morning for same day early afternoon surgery. Rectal temperature was monitored as a marker of central opioid effects throughout the study and von Frey thresholds were obtained to assess the antinociceptive effects.

[3] = Plasma methadone, fluconazole, naltrexone and naltrexone metabolite concentrations (Example IV)
Source text: Anesthesia was monitored by licensed veterinary technicians.

[4] = in vivo
Description: Five healthy mixed breed, purpose bred dogs were included in this study. […] Blood was obtained immediately prior to the 4 hour dose (i.e. a trough sample).

[5] = humans; cited from earlier work
[6] = tested on: dogs undergoing ovariohysterectomy; assay: Adverse effects in ovariohysterectomy clinical trial (Example IV); settings: injection group, 0.5 mg/kg SC q 4 h
[7] = tested on: dogs undergoing ovariohysterectomy; assay: Pre-anesthetic sedation in ovariohysterectomy clinical trial (Example IV); settings: 0.5 mg/kg SC q 4 h; with acepromazine 0.05 mg/kg SC
[8] = tested on: dogs undergoing ovariohysterectomy; assay: Ease of IV catheter placement in ovariohysterectomy clinical trial (Example IV); settings: 0.5 mg/kg SC q 4 h; with acepromazine 0.05 mg/kg SC
[9] = tested on: dogs undergoing ovariohysterectomy; assay: Sedation scores at each time point in ovariohysterectomy clinical trial (Example IV); settings: 0.5 mg/kg SC q 4 h

CCC(=O)C(CC(C)N(C)C)(c1ccccc1)c1ccccc1 (racemic) [methadone]
Sedation [1]: not noted in any of the dogs at any time point
Mean plasma concentration of methadone [2]: exceeded 10 ng/mL
Plasma methadone concentrations median (range) ([3]; injectable methadone 0.5 mg/kg SC q 4 h, Day 1 4:00 PM): 14.4 (5.4-32.9)^1
Plasma methadone concentrations median (range) ([3]; injectable methadone 0.5 mg/kg SC q 4 h, Day 1 8:00 PM): 22.4 (14.8-47.7)
Plasma methadone concentrations median (range) ([3]; injectable methadone 0.5 mg/kg SC q 4 h, Day 2 5:00 PM): 2.0 (0-10)^1,2
Plasma methadone concentrations median (range) ([3]; oral methadone/fluconazole/naltrexone formulation 0.5 mg/kg (methadone) PO q 12 h, Day 1 4:00 PM): 20.6 (2.6-30.3)^2
Plasma methadone concentrations median (range) ([3]; oral methadone/fluconazole/naltrexone formulation 0.5 mg/kg (methadone) PO q 12 h, Day 1 8:00 PM): 17.6 (2.0-29.8)^1
Plasma methadone concentrations median (range) ([3]; oral methadone/fluconazole/naltrexone formulation 0.5 mg/kg (methadone) PO q 12 h, Day 2 5:00 PM): 14.1 (3.6-41.7)^2,3
Plasma methadone concentrations median (range) ([3]; oral methadone/fluconazole/naltrexone formulation 1 mg/kg (methadone) PO q 12 h, Day 1 4:00 PM): 36.2 (3.2-67.7)^1,2
Plasma methadone concentrations median (range) ([3]; oral methadone/fluconazole/naltrexone formulation 1 mg/kg (methadone) PO q 12 h, Day 1 8:00 PM): 27.7 (2.1-54.8)^1
Plasma methadone concentrations median (range) ([3]; oral methadone/fluconazole/naltrexone formulation 1 mg/kg (methadone) PO q 12 h, Day 2 5:00 PM): 46.7 (1.4-98.5)^1,3
Persistence of methadone plasma concentrations compared to the standard formulation of methadone ([4]; injectable opioid formulation containing an azole antifungal): persisted longer
Time to which methadone plasma concentrations persisted ([4]; injectable opioid formulation containing an azole antifungal, SC at 0 and 4 h, one dog): at least 32 hours
concentration at 32 h ([4]; mixed breed, dog, in vivo, sc): 4 ng/mL
Increase in methadone drug exposure when fluconazole is administered with methadone [5]: 30-35%
Perioperative nausea or vomiting (dogs affected/dogs in group) [6]: 2/13
Pre-anesthetic sedation: A. None - no apparent effect (number of dogs) [7]: 0
Pre-anesthetic sedation: B. Mild - drowsy, but still active (number of dogs) [7]: 7
Pre-anesthetic sedation: C. Moderate - drowsy, glazed eyes, but still able to walk without assistance (number of dogs) [7]: 3
Pre-anesthetic sedation: D. Heavy - Very drowsy, unable to walk or requires assistance to walk (number of dogs) [7]: 3
IV Catheter placement: A. Unable to restrain the dog (number of dogs) [8]: 0
IV Catheter placement: B. The dog was restrained, but was difficult (number of dogs) [8]: 2
IV Catheter placement: C. The dog was restrained with little effort (number of dogs) [8]: 8
IV Catheter placement: D. The dog was unable to sit sternal and had to be supported (number of dogs) [8]: 3
Sedation Score Moderate (number of dogs) ([9]; Day 0 5:00 PM): 0
Sedation Score None (number of dogs) ([9]; Day 0 5:00 PM): 13
Sedation Score Profound (number of dogs) ([9]; Day 0 5:00 PM): 0
Sedation Score Slight (number of dogs) ([9]; Day 0 5:00 PM): 0
Sedation Score Moderate (number of dogs) ([9]; Day 1 1:00 PM): 3
Sedation Score None (number of dogs) ([9]; Day 1 1:00 PM): 1
Sedation Score Profound (number of dogs) ([9]; Day 1 1:00 PM): 3
Sedation Score Slight (number of dogs) ([9]; Day 1 1:00 PM): 6
Sedation Score Moderate (number of dogs) ([9]; Day 1 4:00 PM): 0
Sedation Score None (number of dogs) ([9]; Day 1 4:00 PM): 5
Sedation Score Profound (number of dogs) ([9]; Day 1 4:00 PM): 0
Sedation Score Slight (number of dogs) ([9]; Day 1 4:00 PM): 8
Sedation Score Moderate (number of dogs) ([9]; Day 1 6:00 PM): 1
Sedation Score None (number of dogs) ([9]; Day 1 6:00 PM): 4
Sedation Score Profound (number of dogs) ([9]; Day 1 6:00 PM): 0
Sedation Score Slight (number of dogs) ([9]; Day 1 6:00 PM): 8
Sedation Score Moderate (number of dogs) ([9]; Day 1 8:00 PM): 0
Sedation Score None (number of dogs) ([9]; Day 1 8:00 PM): 9
Sedation Score Profound (number of dogs) ([9]; Day 1 8:00 PM): 0
Sedation Score Slight (number of dogs) ([9]; Day 1 8:00 PM): 6
Sedation Score Moderate (number of dogs) ([9]; Day 1 12:00 PM): 1
Sedation Score None (number of dogs) ([9]; Day 1 12:00 PM): 2
Sedation Score Profound (number of dogs) ([9]; Day 1 12:00 PM): 0
Sedation Score Slight (number of dogs) ([9]; Day 1 12:00 PM): 10
Sedation Score Moderate (number of dogs) ([9]; Day 2 5:00 PM): 0
Sedation Score None (number of dogs) ([9]; Day 2 5:00 PM): 13
Sedation Score Profound (number of dogs) ([9]; Day 2 5:00 PM): 0
Sedation Score Slight (number of dogs) ([9]; Day 2 5:00 PM): 0
Sedation Score Moderate (number of dogs) ([9]; Day 2 6:30 AM): 0
Sedation Score None (number of dogs) ([9]; Day 2 6:30 AM): 13
Sedation Score Profound (number of dogs) ([9]; Day 2 6:30 AM): 0
Sedation Score Slight (number of dogs) ([9]; Day 2 6:30 AM): 0
Sedation Score Moderate (number of dogs) ([9]; Day 3 7:00 AM): 0

Source: patent US11771662B2, “Analgesic formulation for control of pain in dogs” (Kansas State University Research Foundation, priority 2017, dated 2023)
